In PubChem BioAssay (NCI):
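At the GI50, growth is halved. TGI is the concentration that stops growth completely.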

Assays:
Assay in all cases: NCI tumour cell line growth inhibition, 384-well format
HL-60(TB) leukemia = system: HL-60(TB) leukemia
U251 glioblastoma = system: U251 glioblastoma
TK-10 renal = system: TK-10 renal
HT29 colon = system: HT29 colon
MDA-MB-231 breast = system: MDA-MB-231 breast
UACC-62 melanoma = system: UACC-62 melanoma
A498 renal = system: A498 renal
PC-3 prostate = system: PC-3 prostate
SR leukemia = system: SR leukemia
RPMI-8226 leukemia = system: RPMI-8226 leukemia
NCI-H460 NSCLC = system: NCI-H460 NSCLC
SK-MEL-5 melanoma = system: SK-MEL-5 melanoma
MCF7 breast = system: MCF7 breast
OVCAR-3 ovarian = system: OVCAR-3 ovarian
NCI-H522 lung = system: NCI-H522 lung
EKVX NSCLC = system: EKVX NSCLC
MALME-3M melanoma = system: MALME-3M melanoma
SF-295 CNS = system: SF-295 CNS
UO-31 renal = system: UO-31 renal
BT-549 breast = system: BT-549 breast
NCI/ADR-RES ovarian = system: NCI/ADR-RES ovarian
SK-OV-3 ovarian = system: SK-OV-3 ovarian
SF-268 CNS = system: SF-268 CNS
NCI-H322M lung = system: NCI-H322M lung
MDA-MB-468 breast = system: MDA-MB-468 breast
KM12 colon = system: KM12 colon
CCRF-CEM leukemia = system: CCRF-CEM leukemia
CAKI-1 renal = system: CAKI-1 renal
UACC-257 melanoma = system: UACC-257 melanoma
HS 578T breast = system: HS 578T breast
SW-620 colon = system: SW-620 colon
OVCAR-4 ovarian = system: OVCAR-4 ovarian
SN12C renal = system: SN12C renal
LOX IMVI melanoma = system: LOX IMVI melanoma
K-562 leukemia = system: K-562 leukemia
MOLT-4 leukemia = system: MOLT-4 leukemia
IGROV1 ovarian = system: IGROV1 ovarian
HCC-2998 colon = system: HCC-2998 colon
A549 NSCLC = system: A549 NSCLC
SNB-75 CNS = system: SNB-75 CNS
HOP-62 NSCLC = system: HOP-62 NSCLC
NCI-H226 lung = system: NCI-H226 lung
HOP-92 NSCLC = system: HOP-92 NSCLC
RXF 393 renal = system: RXF 393 renal
M14 melanoma = system: M14 melanoma
786-0 renal = system: 786-0 renal
SK-MEL-28 melanoma = system: SK-MEL-28 melanoma
MDA-MB-435 melanoma = system: MDA-MB-435 melanoma
SNB-19 CNS = system: SNB-19 CNS
T-47D breast = system: T-47D breast
HCT-15 colon = system: HCT-15 colon
DU-145 prostate = system: DU-145 prostate
ACHN renal = system: ACHN renal
NCI-H23 lung = system: NCI-H23 lung
OVCAR-8 ovarian = system: OVCAR-8 ovarian
COLO 205 colon = system: COLO 205 colon
SF-539 CNS = system: SF-539 CNS
OVCAR-5 ovarian = system: OVCAR-5 ovarian

## O=C(NCC(F)(F)F)Nc1cccc(-c2cnc3cc(-c4ccc(F)cc4)ccn23)c1
HL-60(TB) leukemia
  GI50: 0.321 µM
  TGI: 0.853 µM
U251 glioblastoma
  GI50: 1.39 µM
  TGI: 12.2 µM
TK-10 renal
  GI50: 2.21 µM
  TGI: 13.1 µM
HT29 colon
  GI50: 0.367 µM
  TGI: 1.57 µM
MDA-MB-231 breast
  GI50: 0.65 µM
  TGI: 19.3 µM
UACC-62 melanoma
  GI50: 0.559 µM
  TGI: 12.4 µM
A498 renal
  GI50: 0.769 µM
  TGI: 10.3 µM
PC-3 prostate
  GI50: 2.3 µM
  TGI: 10.8 µM
SR leukemia
  GI50: 0.148 µM
  TGI: 0.309 µM
RPMI-8226 leukemia
  GI50: 0.575 µM
  TGI: 1.83 µM
NCI-H460 NSCLC
  GI50: 0.408 µM
  TGI: 10.4 µM
SK-MEL-5 melanoma
  GI50: 0.444 µM
  TGI: 9.92 µM
MCF7 breast
  GI50: 0.804 µM
  TGI: 12.5 µM
OVCAR-3 ovarian
  GI50: 0.484 µM
  TGI: 2.25 µM
NCI-H522 lung
  GI50: 0.292 µM
  TGI: 0.899 µM
EKVX NSCLC
  GI50: 1.9 µM
  TGI: 16.8 µM
MALME-3M melanoma
  GI50: 0.498 µM
  TGI: 14.5 µM
SF-295 CNS
  GI50: 1.13 µM
  TGI: 4.39 µM
UO-31 renal
  GI50: 4.68 µM
  TGI: 19.5 µM
BT-549 breast
  GI50: 0.324 µM
  TGI: 2.13 µM
NCI/ADR-RES ovarian
  GI50: 1.51 µM
  TGI: 3.73 µM
SK-OV-3 ovarian
  GI50: 0.631 µM
  TGI: 7.87 µM
SF-268 CNS
  GI50: 1.81 µM
  TGI: 9.05 µM
NCI-H322M lung
  GI50: 3.68 µM
  TGI: 21.2 µM
MDA-MB-468 breast
  GI50: 0.25 µM
  TGI: 0.568 µM
KM12 colon
  GI50: 0.4 µM
  TGI: 11.9 µM
CCRF-CEM leukemia
  GI50: 0.734 µM
  TGI: 2.03 µM
CAKI-1 renal
  GI50: 1.11 µM
  TGI: 12.5 µM
UACC-257 melanoma
  GI50: 1.85 µM
  TGI: 14.6 µM
HS 578T breast
  GI50: 0.655 µM
  TGI: 2.25 µM
SW-620 colon
  GI50: 0.433 µM
  TGI: 10.5 µM
OVCAR-4 ovarian
  GI50: 0.571 µM
  TGI: 5.64 µM
SN12C renal
  GI50: 0.756 µM
  TGI: 4.53 µM
LOX IMVI melanoma
  GI50: 0.741 µM
  TGI: 8.31 µM
K-562 leukemia
  GI50: 0.362 µM
  TGI: 1.2 µM
MOLT-4 leukemia
  GI50: 0.219 µM
  TGI: 0.391 µM
IGROV1 ovarian
  GI50: 1.4 µM
  TGI: 10.5 µM
HCC-2998 colon
  GI50: 0.705 µM
  TGI: 9.27 µM
A549 NSCLC
  GI50: 1.08 µM
  TGI: 12.9 µM
SNB-75 CNS
  GI50: 0.376 µM
  TGI: 2.09 µM
HOP-62 NSCLC
  GI50: 0.688 µM
  TGI: 11 µM
NCI-H226 lung
  GI50: 1.03 µM
  TGI: 8.57 µM
HOP-92 NSCLC
  GI50: 1.71 µM
  TGI: 8.88 µM
RXF 393 renal
  GI50: 1.49 µM
  TGI: 7.29 µM
M14 melanoma
  GI50: 0.569 µM
  TGI: 5.67 µM
786-0 renal
  GI50: 1.08 µM
  TGI: 5.81 µM
SK-MEL-28 melanoma
  GI50: 2.32 µM
  TGI: 17.9 µM
MDA-MB-435 melanoma
  GI50: 0.21 µM
  TGI: 0.457 µM
SNB-19 CNS
  GI50: 1.46 µM
  TGI: 6.95 µM
T-47D breast
  GI50: 0.862 µM
  TGI: 7.45 µM
HCT-15 colon
  GI50: 0.358 µM
  TGI: 1.61 µM
DU-145 prostate
  GI50: 3.13 µM
  TGI: 18.4 µM
ACHN renal
  GI50: 2.79 µM
  TGI: 12.9 µM
NCI-H23 lung
  GI50: 1.02 µM
  TGI: 3.56 µM
OVCAR-8 ovarian
  GI50: 2.48 µM
  TGI: 12.1 µM
COLO 205 colon
  GI50: 0.451 µM
  TGI: 3.53 µM
SF-539 CNS
  GI50: 0.832 µM
  TGI: 2.54 µM
OVCAR-5 ovarian
  GI50: 4.04 µM
  TGI: 25.5 µM
